Key:
[1] = tested on: CD34+ cells in peripheral blood; assay: Percentage of CD34+ cells in peripheral blood by flow cytometry; assay type: in vivo, C57 mice; details: 5 mg/kg hypodermic injection, 4 h post injection, tail blood; compared to DMSO and G-CSF (FIG. 2)
Protocol: 9 C57 mice (Experimental animal center, Academy of Military Medical Sciences), male, were randomly divided into 3 groups: DMSO (Beijing Chemical Inc.) group with 3 mice, G-CSF (Xiamen Baote Biotechnology Inc.) group with 3 mice, TA01 group with 3 mice. Injection volume was calculated on the basis of 5 mg/kg body weight, and the medium for the injection was TE buffer with pH 7.5-8.5. At 4 h post hypodermic injection, 100 μL blood was harvested from tail and treated with RBC lysis buffer (Jingmei Biotechnology Inc.), wherein, the volume ratio of the blood to the RBC lysis buffer was 1:10. The two were uniformly mixed, stood for 10-15 min under room temperature, and then centrifuged for 6 min at 1500 rpm/min. After removing the supernatant, 100 ul 1% (v/v) serum (Hyclone Inc.) was added and mixed. Then 0.75 ul purified anti-mouse CD34 (Biolegend Inc) was added (operated on a superclean bench), mixed, and incubated for 1-2 h under room temperature. The mixture was added up to 1.5 ml with PBS containing 1% (v/v) serum, and then centrifuged for 5 min at 1500 rpm/min. After removing the supernatant, 100 ul 1% (v/v) serum was added and mixed. Then 2 ul Goat anti Mice antibody labeled with FITC (Beijing Zhongshanjinqiao Biotechnology Limited Co.) was added, mixed and incubated for 30 min under room temperature. […]

[2] = tested on: mice receiving a lethal irradiation; assay: Survival of lethally irradiated mice after transplant of mobilized peripheral blood MNCs; assay type: in vivo, C57 mice; details: 7.0 Gy 60Co irradiation; tail vein injection of MNCs from donors given 5 mg/kg, 4 h; survival in 30 days; compared to DMSO and G-CSF (FIG. 5)
Protocol: 9 C57 mice, male, were randomly divided into 3 groups, and then received a whole body irradiation by ^60Co γ ray at 2.72 Gy/min with a volume of 7.0 Gy. 9 C57 mice, male, were randomly divided into 3 groups: DMSO group with 3 mice, G-CSF group with 3 mice, and TA01 group with 3 mice. Injection volume was calculated on the basis of 5 mg/kg body weight, and the medium for injection was TE buffer with pH 7.5-8.5. At 4 h post hypodermic injection, the eyeballs were extracted and peripheral blood was collected into a 10 ml centrifuge tube which was rinsed with heparin in advance, and then PBS was added up to 5 ml and mixed. Mouse percoll (Tianjin Haoyang Bioproduct Technology Limited Co.) was preloaded into vials at 5 ml/vial (operated on a superclean bench), and then the blood mixed with PBS was slightly impregnated to the upper layer of the percoll and centrifuged for 20 min at 2000 rpm/min. Cells in the middle layer were transferred into a new 10 ml centrifuge tube which was filled up to 10 ml with PBS, centrifuged for 5 min at 1500 rpm/min to remove PBS in the supernatant. The tube was filled up to 10 ml with PBS, and centrifuged for another 5 min at 1500 rpm/min to remove PBS in the supernatant. Then the tube was filled up to 0.5 ml with PBS. […] The number of survival mice in 30 days was counted.

WBCs in peripheral blood = assay: Number of WBCs in peripheral blood (Sysmex Microcell Counter); assay type: in vivo, C57 mice; details: 5 mg/kg hypodermic injection, 4 h post injection, tail blood; compared to DMSO and G-CSF (FIG. 3)
Protocol: 9 C57 mice, male, were randomly divided into 3 groups: DMSO group with 3 mice, G-CSF group with 3 mice, and TA01 group with 3 mice. Injection volume was calculated on the basis of 5 mg/kg body weight, and the medium for injection was TE buffer with pH 7.5-8.5. At 4 h post hypodermic injection, 10 μl blood was harvested from tail and treated with 2 ml cell diluting buffer (Jinnan Bolai Biotechnology Limited Co.). The number of WBCs was determined by a Sysmex Microcell Counter.

hematopoietic stem cells = assay: Mobilization of hematopoietic stem cells into peripheral blood (overall conclusion); assay type: in vivo; details: summary statement; verification processes for other compounds not described
MNCs in peripheral blood = assay: CFU and CFU-GM generated by MNCs in peripheral blood (semisolid medium culture); assay type: in vivo, C57 mice; details: 5 mg/kg hypodermic injection, blood at 4 h, MNCs cultured 7 days; compared to DMSO and G-CSF (FIG. 4)
Protocol: 9 C57 mice, male, were randomly divided into 3 groups: DMSO group with 3 mice, G-CSF group with 3 mice, TA01 group with 3 mice. Injection volume was calculated on the basis of 5 mg/kg body weight, and the medium for injection was TE buffer with pH 7.5-8.5. At 4 h post hypodermic injection, the eyeballs were extracted and the peripheral blood was collected into a 10 ml centrifuge tube which was rinsed with heparin (Tianjin Haoyang Bioproduct Technology Limited Co.) in advance, and then PBS (Hyclone Inc.) was added up to 5 ml and mixed. Mouse percoll (Tianjin Haoyang Bioproduct Technology Limited Co.) was preloaded into vials at 5 ml/vial (operated on a superclean bench), and then the blood mixed with PBS was slightly impregnated into the upper layer of the percoll and centrifuged for 20 min at 2000 rpm/min. Cells in the middle layer were transferred into a new 10 ml centrifuge tube which was filled up to 10 ml with PBS, and centrifuged for 5 min at 1500 rpm/min to remove PBS in the supernatant. The tube was filled up to 10 ml with PBS, centrifuged for another 5 min at 1500 rpm/min to remove PBS in the supernatant. Then, the tube was filled up to 1 ml with PBS. The number of cells was then counted and the number of the mononuclear cells (MNCs) per ml of the solution was calculated. […] Finally, CFU and CFU-GM were counted.

For `CN(C)CCN(CCN(C)C)CCN(C)C` [TA01, Tris[2-(dimethylamino)ethyl]amine], the “percentage of CD34+ cells in peripheral blood” value [1] was “can increase the percentage of CD34+ cells in peripheral blood compared to DMSO and G-CSF”, the “survival rate of mice receiving a lethal irradiation” value [2] was “survival rate of the mice receiving a lethal irradiation can be increased” and the “number of WBCs in peripheral blood” value (WBCs in peripheral blood) was “can increase the number of WBCs in peripheral blood compared to DMSO and G-CSF”. For the same compound, the “mobilization of hematopoietic stem cells into peripheral blood” value (hematopoietic stem cells) was “can efficiently mobilize hematopoietic stem cells into peripheral blood”, the “number of CFU generated by MNCs in peripheral blood” value (MNCs in peripheral blood) was “can promote the numbers of both CFU and CFU-GM” and the “number of CFU-GM generated by MNCs in peripheral blood” value (MNCs in peripheral blood) was “can promote the numbers of both CFU and CFU-GM”.

From patent US20120322886A1, “USE OF A SATURATED AMINES COMPOUND IN MANUFACTURE OF MEDICAMENTS FOR […] HEMATOPOIETIC STEM CELL” (Institute of Transfusion Medicine, Academy of Mili -tary …, priority 2009, published 2012)
